# Test results taken from US6979471B1, “Composition comprising pharmaceutical/nutraceutical agent and a bio-enhancer obtained from Glycyrrhiza glabra” (Council of Scientific and Industrial Research, priority 2000, dated 2005).
# How the values were obtained:
# Type in all cases: cell-based
# [1] = test system: Escherichia coli; test: Disc diffusion assay against Escherichia coli
# Experimental: (§1) • a) The minimum inhibitory concentration (MIC) of any antibiotic or drug molecule is determined against Escherichia coli (ATCC 10536), Bacillus subtilis (ATCC 6015) and Mycobacterium smegmatis (ATCC 14468) and Candida albicans (ATCC 10231) in broth and disc diffusion assays. • b) The antibiotics or antifungal agents at concentrations 1/10, ⅛, ⅙, ¼, ⅓, ½ and equal to MIC are added alone and in combination with the test compound at varying concentrations in broth assays to evaluate the comparative level of inhibition and similarly at varying concentrations in disc diffusion assay. • c) The combinations showing enhancement in terms of higher activity than antibiotic alone for the inhibition of bacterial growth (large inhibition zone in disc diffusion and higher killing at lower concentration in broth assay) are picked up for future testing. • d) In broth assays the activity is quantified by counting number of viable cells in a given treatment and converted in fold enhancement by the combination treatment compared to antibiotic/drug alone in the killing percentage of cells. • e) The pretreatment assay is followed to determine whether the bioenhancer which may be either an extract obtained from the plant Glycyrrhiza glabra, glycyrrhizin or glycyrrhizic acid, is required along with antibiotic to enhance its activity or even its withdrawal after treatment or prior to antibiotic treatment would benefit. […] Assay for Bio-Enhancement of Anti-Cancer Agents • a) MCF-7 (Breast cancer cell line is inoculated at a density of about 0.1×10^6 cells in MEM medium in the wells of 24 well plate. • b) The used up medium in these cultures is replaced with fresh medium after 18 hours in each well. • c) The test compound (s) is added at desired concentrations in different wells just after the medium replacement. • d) Observations are recorded on the cell count after 36 hours for which the following steps are required. • i. […] The number of viable cells is counted in 5 big squares and the reading is taken from 5 microscopic fields to determine the average. • viii. […]
# [2] = test system: Escherichia coli (ATCC 10536); test: Broth assay for bio-enhancement of antibiotics: viable cell count, Escherichia coli
# [3] = test system: Mycobacterium smegmatis (ATCC 14468); test: Broth assay for bio-enhancement of antibiotics: viable cell count, Mycobacterium smegmatis; settings: Table 3
# Experimental: (§2) For this, the cells are treated with the bioenhancer/compound for 4 to 8 hours and then washed free of it by centrifugation and washing in sterile water. […] 2. Assay for Bio-Enhancement of Anti-Cancer Agents • a) MCF-7 (Breast cancer cell line is inoculated at a density of about 0.1×10^6 cells in MEM medium in the wells of 24 well plate. • b) The used up medium in these cultures is replaced with fresh medium after 18 hours in each well. • c) The test compound (s) is added at desired concentrations in different wells just after the medium replacement. • d) Observations are recorded on the cell count after 36 hours for which the following steps are required. • i. The medium is removed from the wells. • ii. The wells are rinsed with 1 ml PBS (Phosphate buffer saline). • iii. To each well 500 μl of freshly prepared trypsin solution (0.1% in PBS) is added. • iv. Trypsin solution is removed after 30 seconds and the plate is gently tapped till the cells are released from the plate surface. • v. Fresh 1 ml of MEM growth medium is added and agitated with a pipette to obtain a cell suspension. • vi. 10 μl of cell suspension is taken on the haemocytometer and a cover glass is placed over the counting chamber. • vii. The number of viable cells is counted in 5 big squares and the reading is taken from 5 microscopic fields to determine the average. • viii. The cell count (titre per ml) in the original sample is then calculated as average count×10^3. Composition of Minimum Essential Medium (MEM): 100 ml
# In the next step of elucidation of the enhancer action the applicants experimented with the killing activities of different antibiotics against the bacteria singly and in combination with the test compound glycyrrhizin following the method described above. These experiments are to be considered with assay for bioenhancement of the compounds glycyrrhizin/glycyrrhizic acid and licorice, as described earlier. […] In all the experiments the glycyrrhizin concentration was kept at 1 μg/ml, unless it is specifically mentioned.
# [4] = test system: Mycobacterium smegmatis; test: Disc diffusion assay against Mycobacterium smegmatis
# Experimental: as §1
# [5] = test system: Candida albicans (ATCC 10231); test: Disc diffusion assay, antifungal agent against Candida albicans; settings: Candida albicans, ATCC10231; glycyrrhizin 1 μg/disc alone, clotrimazole 0
# Experimental: as §1
# [6] = test system: MCF-7 (Breast cancer cell line); test: Assay for bio-enhancement of anti-cancer agents: viable cell count after 36 hours; settings: glycyrrhizin alone, without taxol; untreated control […] 10^−6
# Experimental: as §2
# [7] = test system: Escherichia coli, Bacillus subtilis and Mycobacterium smegmatis; test: Bacteria grown with glycyrrhizin alone; pretreatment assay
# Experimental: For this, the cells are treated with the bioenhancer/compound for 4 to 8 hours and then washed free of it by centrifugation and washing in sterile water. […] The medium is removed from the wells. • ii. The wells are rinsed with 1 ml PBS (Phosphate buffer saline). • iii. To each well 500 μl of freshly prepared trypsin solution (0.1% in PBS) is added. • iv. Trypsin solution is removed after 30 seconds and the plate is gently tapped till the cells are released from the plate surface. • v. Fresh 1 ml of MEM growth medium is added and agitated with a pipette to obtain a cell suspension. • vi. 10 μl of cell suspension is taken on the haemocytometer and a cover glass is placed over the counting chamber. • vii. […] The cell count (titre per ml) in the original sample is then calculated as average count×10^3. Composition of Minimum Essential Medium (MEM): 100 ml In the next step of elucidation of the enhancer action the applicants experimented with the killing activities of different antibiotics against the bacteria singly and in combination with the test compound glycyrrhizin following the method described above. These experiments are to be considered with assay for bioenhancement of the compounds glycyrrhizin/glycyrrhizic acid and licorice, as described earlier. […]
smiles,measurement,setting,value
CO[C@H]1/C=C/O[C@@]2(C)Oc3c(C)c(O)c4c(O)c(c(/C=N/N5CCN(C)CC5)c(O)c4c3C2=O)NC(=O)/C(C)=C\C=C\[C@H](C)[C@H](O)[C@@H](C)[C@@H](O)[C@@H](C)[C@H](OC(C)=O)[C@@H]1C [Rifampicin],zone of inhibition at 500 µg/disc,"[1]; Escherichia coli, read-out: Net zone of inhibition",2 mm
same,Net zone of inhibition,[1]; rifampicin 500 μg/disc + glycyrrhizic acid 4 μg/disc,3 mm
same,Survival fraction of viable cells upon treatment with antibiotic alone (a),"[2]; Table 1, antibiotic 10 μg/ml",0.42
same,Survival fraction of viable cells upon treatment with antibiotic- glycyrrhizin combination (b),"[2]; Table 1, antibiotic 10 μg/ml + glycyrrhizin 1 μg/ml",0.11
same,*Folds enhancement in antibiotic activity (a/b),"[2]; Table 1, antibiotic 10 μg/ml, glycyrrhizin 1 μg/ml",3.8 folds
same,Survival fraction of viable cells upon treatment with antibiotic alone (a),"[2]; Table 1, antibiotic 20 μg/ml",0.28
same,Survival fraction of viable cells upon treatment with antibiotic- glycyrrhizin combination (b),"[2]; Table 1, antibiotic 20 μg/ml + glycyrrhizin 1 μg/ml",0.02
same,*Folds enhancement in antibiotic activity (a/b),"[2]; Table 1, antibiotic 20 μg/ml, glycyrrhizin 1 μg/ml",14.0 folds
same,Survival fraction of viable cells upon treatment with antibiotic glycyrrhizic acid combination (b),"[2]; Table 7, antibiotic 20 μg/ml + glycyrrhizic acid",0.281
same,Survival fraction of viable cells upon treatment with antibiotic glycyrrhizic acid combination (b),"[2]; Table 7, antibiotic 20 μg/ml + glycyrrhizic acid, listed as rifampicin",about 0.281
same,*Folds enhancement in antibiotic activity (a/b),"[2]; Table 7, antibiotic 20 μg/ml, glycyrrhizic acid",2.03 folds
same,Survival fraction of viable cells upon treatment with antibiotic alone (a),"[2]; Table 10, antibiotic 10 μg/ml",0.420
same,Survival fraction of viable cells upon treatment with antibiotic glycyrrhizic acid combination (b),"[2]; Table 10, antibiotic 10 μg/ml + licorice 25 μg/ml",0.135
same,*Folds enhancement in antibiotic activity (a/b),"[2]; Table 10, antibiotic 10 μg/ml, licorice 25 μg/ml",3.10 folds
same,Survival fraction of viable cells upon treatment with antibiotic alone (a),[3]; antibiotic 0.5 μg/ml,0.56 × 10^−4
same,Survival fraction of viable cells upon treatment with antibiotic- glycyrrhizin combination (b),[3]; antibiotic 0.5 μg/ml + glycyrrhizin 1 μg/ml,0.086 × 10^−4
same,*Folds enhancement in antibiotic activity (a/b),"[3]; antibiotic 0.5 μg/ml, glycyrrhizin 1 μg/ml",6.5 folds
same,zone of inhibition at 0.4 µg/disc,"[4]; Mycolicibacterium smegmatis, read-out: Net zone of inhibition",3 mm
same,Net zone of inhibition,[4]; rifampicin 0.4 μg/disc + glycyrrhizic acid 4 μg/disc,4 mm
CC1(C)[C@@H](O[C@H]2O[C@H](C(=O)O)[C@@H](O)[C@H](O)[C@H]2O[C@@H]2O[C@H](C(=O)O)[C@@H](O)[C@H](O)[C@H]2O)CC[C@]2(C)[C@H]3C(=O)C=C4[C@@H]5C[C@@](C)(C(=O)O)CC[C@]5(C)CC[C@@]4(C)[C@]3(C)CC[C@@H]12 [Glycyrrhizin],zone of inhibition at 1 µg/disc,[5],0 mm
same,"Final titre of viable cells, without taxol, control (glycyrrhizin)",[6],0.12 × 10^−6 per ml
same,Enhancement of antibiotic potency after pretreatment of bacterial cells,"[7]; cells pretreated with glycyrrhizin for 4–8 hours, washed free, then treated with antibiotics",the same results were observed
same,Killing of bacteria grown in presence of the compound as such,"[7]; glycyrrhizin alone, no antibiotic",no significant killing
